Laboratory results reported in US9278963B2, “Pyrimidine hydroxy amide compounds as histone deacetylase inhibitors” (Acetylon Pharmaceuticals, Inc., priority 2013, dated 2016).

Assays:
Type in all cases: biochemical
HDAC1 = HDAC1 (Homo sapiens (Human), UniProt Q13547); test: HDAC enzyme assay, HDAC1
Experimental: (§1) Compounds for testing were diluted in DMSO to 50 fold the final concentration and a ten point three fold dilution series was made. The compounds were diluted in assay buffer (50 mM HEPES, pH 7.4, 100 mM KCl, 0.001% Tween-20, 0.05% BSA, 20 μM TCEP) to 6 fold their final concentration. The HDAC enzymes (purchased from BPS Biosciences) were diluted to 1.5 fold their final concentration in assay buffer. The tripeptide substrate and trypsin at 0.05 μM final concentration were diluted in assay buffer at 6 fold their final concentration. The final enzyme concentrations used in these assays were 3.3 ng/ml (HDAC1), 0.2 ng/ml (HDAC2), 0.08 ng/ml (HDAC3) and 2 ng/ml (HDAC6). The final substrate concentrations used were 16 μM (HDAC1), 10 μM (HDAC2), 17 μM (HDAC3) and 14 μM (HDAC6).
(§2) Five μl of compounds and 20 μl of enzyme were added to wells of a black, opaque 384 well plate in duplicate. Enzyme and compound were incubated together at room temperature for 10 minutes. Five μ1 of substrate was added to each well, the plate was shaken for 60 seconds and placed into a Victor 2 microtiter plate reader. The development of fluorescence was monitored for 60 min and the linear rate of the reaction was calculated. The IC50 was determined using Graph Pad Prism by a four parameter curve fit.

HDAC2 = HDAC2 (Homo sapiens (Human), UniProt Q92769); test: HDAC enzyme assay, HDAC2
Chain of HDAC2 (Q92769 whole entry): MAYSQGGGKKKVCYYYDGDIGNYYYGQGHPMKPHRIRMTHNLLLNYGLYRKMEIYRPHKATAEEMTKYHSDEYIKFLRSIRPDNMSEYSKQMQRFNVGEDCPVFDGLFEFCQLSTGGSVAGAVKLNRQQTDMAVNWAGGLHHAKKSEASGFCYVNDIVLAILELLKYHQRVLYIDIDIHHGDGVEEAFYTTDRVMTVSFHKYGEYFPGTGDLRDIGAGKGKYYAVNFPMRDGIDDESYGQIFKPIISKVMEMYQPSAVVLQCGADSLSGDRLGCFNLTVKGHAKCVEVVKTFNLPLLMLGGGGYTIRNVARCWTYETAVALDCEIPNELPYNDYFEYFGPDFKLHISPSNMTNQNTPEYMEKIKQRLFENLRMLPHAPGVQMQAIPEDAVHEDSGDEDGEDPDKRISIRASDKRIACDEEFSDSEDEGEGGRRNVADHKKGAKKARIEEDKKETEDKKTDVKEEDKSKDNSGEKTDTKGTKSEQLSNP
Experimental: as §1, §2

HDAC3 = HDAC3 (Homo sapiens (Human), UniProt O15379); test: HDAC enzyme assay, HDAC3
Chain of HDAC3 (O15379 whole entry): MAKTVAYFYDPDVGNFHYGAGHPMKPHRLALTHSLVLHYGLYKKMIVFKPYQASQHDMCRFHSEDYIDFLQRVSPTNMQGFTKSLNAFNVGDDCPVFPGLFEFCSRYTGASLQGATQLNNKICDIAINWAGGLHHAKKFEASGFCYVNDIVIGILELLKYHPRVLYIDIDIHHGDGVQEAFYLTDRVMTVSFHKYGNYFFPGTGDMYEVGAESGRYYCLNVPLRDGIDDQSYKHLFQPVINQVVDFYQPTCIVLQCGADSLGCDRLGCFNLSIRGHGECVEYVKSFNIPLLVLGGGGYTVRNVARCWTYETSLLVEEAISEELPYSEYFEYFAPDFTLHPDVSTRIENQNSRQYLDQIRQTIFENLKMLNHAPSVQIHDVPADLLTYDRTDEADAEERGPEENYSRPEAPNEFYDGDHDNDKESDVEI
Chain of HDAC3 (Q9Y618 395-489 partner): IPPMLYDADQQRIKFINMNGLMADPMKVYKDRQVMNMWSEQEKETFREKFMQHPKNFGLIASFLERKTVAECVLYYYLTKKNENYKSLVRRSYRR
Experimental: as §1, with “The HDAC enzymes (purchased from BPS Biosciences) were diluted to 1.5 fold their final concentration in assay buffer.” left out, “(HDAC6).” for “(HDAC6). The final substrate concentrations used were 16 μM (HDAC1), 10 μM (HDAC2), 17 μM (HDAC3) and 14 μM (HDAC6).”
as §2

HDAC6 = HDAC6 (Homo sapiens (Human), UniProt Q9UBN7); test: HDAC enzyme assay, HDAC6
Chain of HDAC6 (Q9UBN7 whole entry): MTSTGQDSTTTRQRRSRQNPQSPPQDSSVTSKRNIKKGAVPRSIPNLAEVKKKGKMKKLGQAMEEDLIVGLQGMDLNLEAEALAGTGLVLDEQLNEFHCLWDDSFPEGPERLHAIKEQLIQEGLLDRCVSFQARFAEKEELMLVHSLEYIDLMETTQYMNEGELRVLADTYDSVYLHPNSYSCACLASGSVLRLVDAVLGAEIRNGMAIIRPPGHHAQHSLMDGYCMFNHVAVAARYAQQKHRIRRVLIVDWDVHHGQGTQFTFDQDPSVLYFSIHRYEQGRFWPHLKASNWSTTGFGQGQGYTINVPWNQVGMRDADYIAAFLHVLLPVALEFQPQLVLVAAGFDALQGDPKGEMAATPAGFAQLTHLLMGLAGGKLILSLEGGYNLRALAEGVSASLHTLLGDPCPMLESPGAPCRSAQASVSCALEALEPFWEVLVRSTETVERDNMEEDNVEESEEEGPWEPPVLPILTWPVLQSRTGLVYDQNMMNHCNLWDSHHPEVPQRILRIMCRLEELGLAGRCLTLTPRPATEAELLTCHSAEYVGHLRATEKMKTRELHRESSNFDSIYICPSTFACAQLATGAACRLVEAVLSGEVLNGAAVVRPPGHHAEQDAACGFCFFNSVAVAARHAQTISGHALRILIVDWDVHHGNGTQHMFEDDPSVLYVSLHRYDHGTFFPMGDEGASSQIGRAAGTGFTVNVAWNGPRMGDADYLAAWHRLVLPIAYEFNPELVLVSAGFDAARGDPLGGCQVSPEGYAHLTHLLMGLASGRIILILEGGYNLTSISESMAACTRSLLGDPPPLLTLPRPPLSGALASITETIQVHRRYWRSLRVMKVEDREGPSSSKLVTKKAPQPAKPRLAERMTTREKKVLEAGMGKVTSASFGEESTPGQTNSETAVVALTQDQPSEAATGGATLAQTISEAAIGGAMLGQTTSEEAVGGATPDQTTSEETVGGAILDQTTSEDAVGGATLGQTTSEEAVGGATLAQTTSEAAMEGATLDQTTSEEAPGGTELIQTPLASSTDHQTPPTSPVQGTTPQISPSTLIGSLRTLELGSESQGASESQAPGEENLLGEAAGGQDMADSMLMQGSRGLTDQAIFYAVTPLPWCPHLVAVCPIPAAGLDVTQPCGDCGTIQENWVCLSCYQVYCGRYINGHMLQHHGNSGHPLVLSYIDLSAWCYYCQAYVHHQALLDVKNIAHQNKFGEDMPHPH
Experimental: as §1
as §2, with “fit. The IC50 values obtained for several of the compounds of this invention are found in Table 1.” for “fit.”

Chain of HDAC1 (Q13547 whole entry): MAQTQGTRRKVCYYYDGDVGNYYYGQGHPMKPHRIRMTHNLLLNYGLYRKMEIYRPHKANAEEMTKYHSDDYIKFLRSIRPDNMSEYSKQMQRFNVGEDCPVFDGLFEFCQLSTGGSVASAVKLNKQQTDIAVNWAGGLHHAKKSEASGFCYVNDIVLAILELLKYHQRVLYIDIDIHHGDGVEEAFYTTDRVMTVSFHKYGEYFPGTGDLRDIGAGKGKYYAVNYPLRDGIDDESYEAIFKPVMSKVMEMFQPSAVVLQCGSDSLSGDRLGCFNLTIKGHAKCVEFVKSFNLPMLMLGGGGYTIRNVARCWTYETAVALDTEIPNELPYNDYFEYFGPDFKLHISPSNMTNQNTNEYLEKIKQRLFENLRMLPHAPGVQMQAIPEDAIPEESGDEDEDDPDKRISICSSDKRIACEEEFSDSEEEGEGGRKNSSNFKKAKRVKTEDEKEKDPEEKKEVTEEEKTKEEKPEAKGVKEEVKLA

| Compound | IC50 (HDAC1) [µM] | IC50 (HDAC2) [µM] | IC50 (HDAC3) [µM] | IC50 (HDAC6) [µM] |
| --- | --- | --- | --- | --- |
| CC(C)C[C@@H](C(=O)N1CCC(Nc2ncc(C(=O)NO)cn2)(c2ccccc2)CC1)c1ccccc1 (stereo in doubt) [Compound 030, N-hydroxy-2-((1-(4-methyl-2-phenylpentanoyl)-4-phenylpiperidin-4-yl)amino)pyrimidine-5-carboxamide] | 0.023 | 0.022 | 0.114 | 0.012 |
| O=C(NO)c1cnc(NC2(c3ccccc3)CCN(C(=O)Nc3cccc(F)c3)CC2)nc1 [Compound 013, 2-((1-((3-fluorophenyl)carbamoyl)-4-phenylpiperidin-4-yl)amino)-N-hydroxypyrimidine-5-carboxamide] | 0.05 | 0.074 | 1.08 | 0.0025 |
| O=C(NO)c1cnc(NC2(c3ccccc3)CCN(S(=O)(=O)c3ccc(C(F)(F)F)cc3)CC2)nc1 [Compound 022, N-hydroxy-2-((4-phenyl-1-((4-(trifluoromethyl)phenyl)sulfonyl)piperidin-4-yl)amino)pyrimidine-5-carboxamide] | 0.704 | 0.782 | 2.7 | 0.0073 |
| O=C(NO)c1cnc(NC2(c3ccccc3)CCN(C(=S)Nc3ccccc3)CC2)nc1 [Compound 017, N-hydroxy-2-((4-phenyl-1-(phenylcarbamothioyl)piperidin-4-yl)amino)pyrimidine-5-carboxamide] | 0.0059 | 0.0052 | 0.111 | 0.0024 |
| C[C@@H](C(=O)N1CCC(C)(Nc2ncc(C(=O)NO)cn2)CC1)c1ccccc1 [Compound 027, (R)—N-hydroxy-2-((4-methyl-1-(2-phenylpropanoyl)piperidin-4-yl)amino)pyrimidine-5-carboxamide] | 0.13 | 0.103 | 0.422 | 0.012 |
| CNC(=O)N1CCC(Nc2ncc(C(=O)NO)cn2)(c2ccccc2)CC1 [Compound 016, N-hydroxy-2-((1-(methylcarbamoyl)-4-phenylpiperidin-4-yl)amino)pyrimidine-5-carboxamide] | 0.17 | 0.207 | 0.987 | 0.0017 |
| O=C(NO)c1cnc(NC2(c3ccccc3)CCN(S(=O)(=O)c3cccc(F)c3)CC2)nc1 [Compound 018, 2-((1-((3-fluorophenyl)sulfonyl)-4-phenylpiperidin-4-yl)amino)-N-hydroxypyrimidine-5-carboxamide] | 0.551 | 0.644 | 2.48 | 0.0051 |
| O=C(NO)c1cnc(NC2(c3ccccc3)CCN(S(=O)(=O)c3ccccc3)CC2)nc1 [Compound 023, N-hydroxy-2-((4-phenyl-1-(phenylsulfonyl)piperidin-4-yl)amino)pyrimidine-5-carboxamide] | 0.844 | 0.829 | 3.54 | 0.0046 |
| Cc1ccccc1S(=O)(=O)N1CCC(Nc2ncc(C(=O)NO)cn2)(c2ccccc2)CC1 [Compound 020, N-hydroxy-2-((4-phenyl-1-(o-tolylsulfonyl)piperidin-4-yl)amino)pyrimidine-5-carboxamide] | 0.372 | 0.423 | 1.98 | 0.0045 |
| O=C(NO)c1cnc(NC2(c3ccccc3)CCN(c3ccccc3)CC2)nc1 [Compound 009, 2-((1,4-diphenylpiperidin-4-yl)amino)-N-hydroxypyrimidine-5-carboxamide] | 0.356 | 0.38 | 1.79 | 0.0021 |
| CC(C)C1(Nc2ncc(C(=O)NO)cn2)CCN(C(=O)OCc2ccccc2)CC1 [Compound 007, benzyl 4-((5-(hydroxycarbamoyl)pyrimidin-2-yl)amino)-4-isopropylpiperidine-1-carboxylate] | 0.119 | 0.121 | 0.879 | 0.0051 |

More lines, in order of falling IC50 (HDAC1), values ahead:

| IC50 (HDAC1) [µM] | IC50 (HDAC2) [µM] | IC50 (HDAC3) [µM] | IC50 (HDAC6) [µM] | Compound |
| --- | --- | --- | --- | --- |
| 1.83 | 2.39 | 8.18 | 0.0059 | CC(=O)N1CCC(Nc2ncc(C(=O)NO)cn2)(C(C)C)CC1 [Compound 005, 2-((1-acetyl-4-isopropylpiperidin-4-yl)amino)-N-hydroxypyrimidine-5-carboxamide] |
| 1.01 | 0.983 | 1.64 | 0.0026 | O=C(NO)c1cnc(NC2(c3ccccc3)CCN(C(=O)OCc3ccccc3)CC2)nc1 [Compound 002, benzyl 4-((5-(hydroxycarbamoyl)pyrimidin-2-yl)amino)-4-phenylpiperidine-1-carboxylate] |
| 0.854 | 0.987 | 3.19 | 0.005 | O=C(NO)c1cnc(NC2(c3ccccc3)CCN(S(=O)(=O)c3ccc(Cl)cc3)CC2)nc1 [Compound 019, 2-((1-((4-chlorophenyl)sulfonyl)-4-phenylpiperidin-4-yl)amino)-N-hydroxypyrimidine-5-carboxamide] |
| 0.697 | 0.809 | 3.78 | 0.004 | CCOC(=O)N1CCC(Nc2ncc(C(=O)NO)cn2)(C(C)C)CC1 [Compound 006, ethyl 4-((5-(hydroxycarbamoyl)pyrimidin-2-yl)amino)-4-isopropylpiperidine-1-carboxylate] |
| 0.57 | 0.642 | 2.51 | 0.0045 | Cc1ccc(S(=O)(=O)N2CCC(Nc3ncc(C(=O)NO)cn3)(c3ccccc3)CC2)cc1 [Compound 021, N-hydroxy-2-((4-phenyl-1-tosylpiperidin-4-yl)amino)pyrimidine-5-carboxamide] |
| 0.346 | 0.254 | 0.84 | 0.0016 | CC(=O)N1CCC(Nc2ncc(C(=O)NO)cn2)(c2ccccc2)CC1 [Compound 003, 2-((1-acetyl-4-phenylpiperidin-4-yl)amino)-N-hydroxypyrimidine-5-carboxamide] |
| 0.275 | 0.321 | 1 | 0.0029 | CCOC(=O)N1CCC(Nc2ncc(C(=O)NO)cn2)(c2ccccc2)CC1 [Compound 004, ethyl 4-((5-(hydroxycarbamoyl)pyrimidin-2-yl)amino)-4-phenylpiperidine-1-carboxylate] |
| 0.102 | 0.093 | 0.914 | 0.011 | CC(C)C[C@H](C(=O)N1CCC(Nc2ncc(C(=O)NO)cn2)(c2ccccc2)CC1)c1ccccc1 (stereo in doubt) [Compound 029, N-hydroxy-2-((1-(4-methyl-2-phenylpentanoyl)-4-phenylpiperidin-4-yl)amino)pyrimidine-5-carboxamide] |
| 0.034 | 0.046 | 0.693 | 0.002 | Cc1ccc(NC(=O)N2CCC(Nc3ncc(C(=O)NO)cn3)(c3ccccc3)CC2)cc1 [Compound 015, N-hydroxy-2-((4-phenyl-1-(p-tolylcarbamoyl)piperidin-4-yl)amino)pyrimidine-5-carboxamide] |
| 0.021 | 0.024 | 0.546 | 0.0015 | COc1ccc(NC(=O)N2CCC(Nc3ncc(C(=O)NO)cn3)(c3ccccc3)CC2)cc1 [Compound 008, N-hydroxy-2-((1-((4-methoxyphenyl)carbamoyl)-4-phenylpiperidin-4-yl)amino)pyrimidine-5-carboxamide] |
| 0.02 | 0.018 | 0.084 | 0.013 | CC(C)[C@@H](C(=O)N1CCC(Nc2ncc(C(=O)NO)cn2)(c2ccccc2)CC1)c1ccccc1 (stereo in doubt) [Compound 025, N-hydroxy-2-((1-(3-methyl-2-phenylbutanoyl)-4-phenylpiperidin-4-yl)amino)pyrimidine-5-carboxamide] |
| 0.018 | 0.027 | 0.824 | 0.0017 | O=C(NO)c1cnc(NC2(c3ccccc3)CCN(C(=O)Nc3ccccc3F)CC2)nc1 [Compound 010, 2-((1-((2-fluorophenyl)carbamoyl)-4-phenylpiperidin-4-yl)amino)-N-hydroxypyrimidine-5-carboxamide] |
| 0.003 | 0.002 | 0.024 | 0.0028 | O=C(NO)c1cnc(NC2(c3ccccc3)CCN(C(=O)Cc3c[nH]c4ccccc34)CC2)nc1 [Compound 028, 2-((1-(2-(1H-indol-3-yl)acetyl)-4-phenylpiperidin-4-yl)amino)-N-hydroxypyrimidine-5-carboxamide] |
